According to patent publication US6387925B1, “Polymorphs of a crystalline azo-bicyclo (2.2.2) oct-3-yl amine citrate and their pharmaceutical compositions” (Pfizer Inc., priority 1999, dated 2002):
Entries after “also recorded” stand apart in the source; their conditions may differ. Counter-ions that a name gives are not always drawn. Like-named read-outs stand apart in the source and are kept apart here.

Assay: Hygroscopicity measurements
Assay type: physicochemical
Conditions: for water absorbed (hygroscopicity): at 90% RH
Experimental: Anhydrous citrate synthesis was carried out by adding 1.1 equivalents citric acid to a stirred slurry of the free base in isopropanol (15 volumes) at room temperature. The resulting solution was stirred and monitored by differential scanning calorimetry and after all the free base had reacted (18 hours), the anhydrous citrate salt was obtained as a white crystalline solid by filtration and drying under house vacuum at 45° C. with nitrogen purge (83% yield). […] The crystalline habits frequently encountered are microcrystalline flakes. The most intense reflections, d spacings, observed by X-ray powder diffraction were 17.608, 10.953, 8.782, 7.956, 7.371, 6.802, 6.571, 5.866, 5.462, 4.907, 4.415, 4.188, 3.635 and 3.512Å.
The resulting citrate monohydrate salt, Form A, was compared to an authentic sample and characterized via PLM, X-ray powder diffraction, proton NMR, Karl Fisher, DSC and elemental analysis. […] The two crystalline habits having similar refractograms encountered were plates and needles. The needle habit was as a result of different rate of growth of the crystal faces in water whereas in isopropanol/water more even growth of crystal faces produced plates. The most intense reflections, d spacings, observed by X-ray powder diffraction were 17.730, 10.928, 9.651, 8.253, 6.707, 5.981, 5.666, 5.450, 4.833, 4.488, and 3.646Å. […] Elemental analysis validated the purity of the salt synthesized.

SMILES | water absorbed (hygroscopicity) [% wt./wt.] | hygroscopicity (in words) (citrate monohydrate) | hygroscopicity (in words)
COc1ccc(C(C)C)cc1CNC1C2CCN(CC2)C1C(c1ccccc1)c1ccccc1.O.O=C(O)CC(O)(CC(=O)O)C(=O)O (stereo not shown) [Form A] | 2.44 | hygroscopically stable; also recorded: lack of hygroscopicity | –
COc1ccc(C(C)C)cc1CN[C@H]1C2CCN(CC2)[C@H]1C(c1ccccc1)c1ccccc1 [anhydrous citrate salt, (2-Benzhydryl-1-azo-bicyclo[2.2.2]oct-3-yl)-(5-isopropyl-2-methoxybenzyl)-amine citrate] | 1.11 | – | nonhygroscopic
